Paper PMC8573170 (The Journal of Biological Chemistry, 2021)
Entries after “also recorded” stand apart in the source; their conditions may differ.

Tests used:
[1] = molecular target: T1, α-thrombin (Homo sapiens, UniProt P00734); test: SPR, peptides passed over immobilized thrombin; type: binding; details: thrombin amine-coupled on CM5 chip; peptides 0-50 nM; single cycle; compared with biotinylated XC-43 surface
Description: Evaluation of binding kinetics by SPR was performed using a Biacore T200 instrument. Synthetic XC-43 containing covalently linked biotin at the N-terminal amino group and the ε-amino group of Lys 1 was bound to a surface of immobilized neutravidin on a CM-5 chip. After conditioning, human α-thrombin was passed over the surface, and kinetic data were collected in single cycle mode using a running buffer of 10 mM HEPES pH 7.4, 150 mM NaCl (HBS). The data were fit to a 1:1 Langmuir binding model. Binding was also analyzed after immobilization of α-thrombin on a CM-5 chip using amine coupling methodology. XC-42 and XC-43 were passed over the surface, and data were collected in the single cycle mode using HBS as a running buffer. The data were fit to a 1:1 binding model as described above.
Figure S2: Surface pl asmon resonanc e in the single cycle mode of (A) XC -42 or (B) XC-43 binding to thrombin immobilized on a CM5 chip surface. Exp erimental data are shown as a solid grey line while the calculated fit is shown as a dashed line (C) Th e kinetic param eters w ere estimated by fitting a 1:1 binding model. Peptide concentrations for each experiment were, 0 nM, 6.25 nM, 12.5 nM, 25 nM, 50 nM.
(§1) (1 picture or pasted object on this page, not shown here)

[2] = molecular target: thrombin (Homo sapiens, UniProt P00734); test: Cleavage of peptides by thrombin in solution, measured by mass spectrometry; type: in vitro ADME; details: 25 μM peptide, 1 μM thrombin (25:1); 2 h at 37 °C; 25 mM Tris-HCl pH 8.0, 150 mM NaCl; ESI-MS
Description: To detect cleavage of XC-42 and XC-43 by thrombin in solution, we incubated each peptide separately at a concentration of 25 μM in the presence of thrombin (1 μM) in 25 mM Tris-HCl pH 8.0 containing 150 mM NaCl for 2 h at 37 °C. Reactions were stopped by adjusting the pH to 2.0 with the addition of TFA. A Q Exactive plus (Thermo Fisher Scientific) mass spectrometer was used to carry out ESI-MS experiments. The instrument was operated at a resolution of 280k, spray voltage of 3.5 kV, and capillary temperature of 250 °C. Samples were desalted by C18 Zip-tip (Millipore) and dissolved in 200 μl of reconstitution buffer (50% acetonitrile, 49% water, 1% TFA). Samples were introduced using a syringe pump (Thermo Fisher Scientific) with a flow rate of 5 μl/min. Xtract was used to deconvolute the raw data.

[3] = molecular target: T1, α-thrombin; test: Isothermal titration calorimetry; parameters: Kinetic assays were performed using human α-thrombin (Enzyme Research Laboratories); purchased Enzyme Research Laboratories; details: using a maximum c value of 500; single binding site; read-out: KD, ITC bound
Description: Isothermal titration calorimetric experiments were performed with a Microcal VP-ITC instrument at 30 °C. Human α-thrombin and XC-43 were dissolved in PBS, pH 7.4 at concentrations of 1 μM and 10 μM, respectively. XC-43 was added as 10-μl injections to the protein sample contained in the calorimeter cell. Calculated injection enthalpies were fit to a single-site binding model in the Microcal data evaluation software.
Figure S3: Analysis of XC-43 binding with thrombin using isothermal titration calorimetry. XC-43 (10 µM) was added to a solution of thrombin (1 µM) in a series of 10 µl injections. Heats were record ed on a VP -IT C MicroCalorimeter and the data fitted using a singl e binding site model. The high affinity makes the magnitude […]
association constant (K) must be ≥ 5 × 10 8 M −1 ( KD ≤ 2 nM ) with a single peptide binding site per thrombin […]
as §1

[4] = tested on: Wistar rats; test: Tail bleeding assay; type: in vivo; details: rat; for increased tail bleeding vs PBS-injected animals: 30 min posttreatment, absorbance 540 nm
Description: The tail bleeding assay was performed with 24 animals kept at 37 °C under general anesthesia with isoflurane vaporized in 100% oxygen at a dose of 5% for induction and 2% for maintenance (flow rate of 0.5 l/min). These animals were randomly distributed into four groups (n = 6 per group) and injected intraperitoneally (300 μl) with: (i) PBS; (ii) heparin (50 μg/kg); (iii) XC-43 (0.5 mg/kg); or (iv) XC-43 (1 mg/kg). After 30 min posttreatment, a medium depth incision was performed at 3 mm from the tip of the animals' tail; the tail was submerged in a test tube containing saline solution (4 ml) and maintained for 30 min. Then, samples from saline solution were appropriately diluted and the absorbance at 540 nm was determined spectrophotometrically.

[5] = molecular target: T1, α-thrombin; test: Kinetic assay of thrombin-catalyzed hydrolysis of S-2238 (Morrison equation); type: biochemical; parameters: Kinetic assays were performed using human α-thrombin (Enzyme Research Laboratories); purchased Enzyme Research Laboratories; details: summary statement in the abstract; fast, tight-binding inhibitor; read-out: dissociation constant for thrombin (abstract)
Description: All reactions were performed at 30 °C. Kinetic assays were performed using human α-thrombin (Enzyme Research Laboratories) and chromogenic substrate S-2238 (Diapharma) using a Thermomax micro plate reader (Molecular Devices). Reactions were performed in 100 μl of TBS buffer (10 mM Tris, 0.15 M NaCl, pH 7.4) containing 0.01% Tween-20. XC-43 (0–3.2 nM) or 0 to 15 pairs of X.cheopis salivary glands were incubated with human α-thrombin (0.2 nM) at 30 °C for 5 min followed by addition of S-2238 (50, 100, 200, 400, and 600 μM). Reactions were followed for 30 min. The inhibitory constants were determined by fitting the nonlinear regression model according to the Morrison’s equation ([43]) using the GraphPad Prism software (GraphPad Software, Inc).

[6] = tested on: α-thrombin; test: XC-43-thrombin complex assembled in 10 mM HEPES pH 7.4, crystallized in 0.2 M magnesium acetate, 9% PEG 8000 (measured pH ∼ 7); details: human, room temperature
[7] = tested on: α-thrombin; test: thrombin (1 μM) in 25 mM Tris-HCl pH 8.0 containing 150 mM NaCl; details: human, 37 °C, up to 2 h
[8] = tested on: Wistar rats; test: Ex vivo aPTT of plasma from treated rats; type: in vivo; details: rat; heparin 50 μg/kg intraperitoneal; 2 and 12 h posttreatment
Description: A total number of 24 animals were randomly distributed into four groups (n= 6 per group) and injected intraperitoneally (300 μl) with: (i) PBS; (ii) heparin (50 μg/kg); (iii) XC-43 (0.5 mg/kg); or (iv) XC-43 (1.0 mg/kg). Animals were anesthetized with isoflurane (5% for induction; 2% for maintenance) and blood samples were obtained at 0, 2, 12, and 24 h posttreatment in 1:10 (v/v) 3.8% trisodium citrate. The PPP was obtained by blood centrifugation (1500g for 10 min) and the aPTT evaluated using the APTT ellagic kit (Wiener Lab). Clot formation was monitored at 650 nm using a SpectraMax M3 (Molecular Devices).

Compound: CC[C@H](C)[C@H](NC(=O)[C@@H]1CCCN1C(=O)[C@H](CCC(=O)O)NC(=O)[C@H](CCSC)NC(=O)CNC(=O)[C@H](CC(N)=O)NC(=O)CNC(=O)CNC(=O)[C@H](CCC(=O)O)NC(=O)CNC(=O)[C@H](CCCNC(=N)N)NC(=O)[C@H](CCC(N)=O)NC(=O)[C@H](Cc1ccc(O)cc1)NC(=O)[C@H](CC(C)C)NC(=O)[C@H](CCCCN)NC(=O)[C@@H]1CCCN1C(=O)[C@H](CCC(N)=O)NC(=O)[C@H](C)NC(=O)[C@@H](NC(=O)[C@H](CCC(=O)O)NC(=O)[C@H](C)NC(=O)[C@H](CCC(=O)O)NC(=O)[C@@H](NC(=O)[C@H](CCC(=O)O)NC(=O)[C@H](CS)NC(=O)[C@H](CCC(=O)O)NC(=O)[C@H](CC(=O)O)NC(=O)[C@H](CC(C)C)NC(=O)[C@H](CC(N)=O)NC(=O)[C@H](CO)NC(=O)[C@H](CCC(N)=O)NC(=O)[C@H](C)NC(=O)[C@@H](NC(=O)[C@H](CCC(=O)O)NC(=O)[C@H](C)NC(=O)[C@H](CCC(=O)O)NC(=O)[C@@H](NC(=O)[C@@H]1CCCN1C(=O)[C@@H](N)CCCCN)C(C)C)C(C)C)C(C)C)C(C)C)C(=O)N1CCC[C@H]1C(=O)N[C@@H](CCC(=O)O)C(=O)N[C@@H](CC(=O)O)C(=O)N[C@H](C(=O)N[C@@H](CC(C)C)C(=O)N[C@@H](CC(N)=O)C(=O)N[C@@H](CCC(=O)O)C(=O)N[C@@H](C)C(=O)N[C@@H](CC(C)C)C(=O)N[C@@H](CC(N)=O)C(=O)N[C@@H](C)C(=O)O)C(C)C [XC-42]
- dissociation constants on immobilized thrombin, SPR (in words) [1]: elevated dissociation constants
- cleavage by thrombin in solution (in words) [2]: majority of the peptide was uncleaved; also recorded: cleaved to a relatively small degree

Compound: CC[C@H](C)[C@H](NC(=O)[C@@H]1CCCN1C(=O)[C@H](CCC(=O)O)NC(=O)[C@H](CCSC)NC(=O)CNC(=O)[C@H](CC(N)=O)NC(=O)CNC(=O)CNC(=O)[C@H](CCC(=O)O)NC(=O)CNC(=O)[C@H](CCCNC(=N)N)NC(=O)[C@H](CCC(N)=O)NC(=O)[C@H](Cc1ccc(O)cc1)NC(=O)[C@H](CC(C)C)NC(=O)[C@H](CCCCN)NC(=O)[C@@H]1CCCN1C(=O)[C@H](CCC(N)=O)NC(=O)[C@H](C)NC(=O)[C@@H](NC(=O)[C@H](CCC(=O)O)NC(=O)[C@H](C)NC(=O)[C@H](CCC(=O)O)NC(=O)[C@@H](NC(=O)[C@@H]1CCCN1C(=O)[C@@H](N)CCCCN)C(C)C)C(C)C)C(=O)N1CCC[C@H]1C(=O)N[C@@H](CCC(=O)O)C(=O)N[C@@H](CC(=O)O)C(=O)N[C@H](C(=O)N[C@@H](CC(C)C)C(=O)N[C@@H](CC(N)=O)C(=O)N[C@@H](CCC(=O)O)C(=O)N[C@@H](C)C(=O)N[C@@H](CC(C)C)C(=O)N[C@@H](CC(N)=O)C(=O)N[C@@H](C)C(=O)O)C(C)C [XC-43]
- Kd [3]: ≤ 2 nM
- increased tail bleeding vs PBS-injected animals ([4]; 0.5 mg/kg intraperitoneal): 3.2 fold
- increased tail bleeding vs PBS-injected animals ([4]; 1 mg/kg intraperitoneal): 7.6 fold
- increased tail bleeding vs heparin-treated animals ([4]; 1 mg/kg intraperitoneal, heparin 50 μg/kg): 2.3 fold
- dissociation constants on immobilized thrombin, SPR (in words) [1]: elevated dissociation constants
- Kd [5]: < 0.01 nM
- cleavage by thrombin in solution (in words) [2]: majority of the peptide was uncleaved; also recorded: largely intact; also recorded: cleaved to a relatively small degree
- cleavage fragment ion intensity relative to that of the uncleaved peptide [2]: less than 15%

Compound: KPVEAEVAQPKLYQRGEGGNGMEPIPEDVLNEALNA
- not cleaved [6]: no evidence of even partial cleavage

Compound: KPVEAEVAQSNLDECEVEAEVAQPKLYQRGEGGNGMEPIPEDVLNEALNA
- fragment found [7]: LYQRGEGGNGMEPIPEDVLNEALNA

Compound: heparin
- increase of ex vivo aPTT in relation to PBS-treated animals [8]: twofold
